According to ChEMBL document CHEMBL1156523, “Cryptosporidium p30, a galactose/N-acetylgalactosamine-specific lectin, mediates infection in vitro” (J Biol Chem, 2007):
≈ marks a conversion by molar mass, not a printed value.

Tests used:
[1] = Inhibition of Cryptosporidium parvum recombinant Galactose/N-acetylgalactosamine-specific lectin binding to Caco2A cells; format: cell-based; conditions: caco-2
Cryptosporidium hominis [2] = assay: Anticryptosporidial activity against Cryptosporidium hominis TU502 assessed as inhibition of rabbit erythrocytes hemagglutinination; format: functional
Cryptosporidium parvum [3] = assay: Anticryptosporidial activity against Cryptosporidium parvum GCH1 assessed as inhibition of rabbit erythrocytes hemagglutinination relative to galactose; format: functional
Cryptosporidium parvum [4] = assay: Anticryptosporidial activity against Cryptosporidium parvum GCH1 assessed as inhibition of rabbit erythrocytes hemagglutinination; format: functional
Cryptosporidium hominis [5] = assay: Anticryptosporidial activity against Cryptosporidium hominis TU502 assessed as inhibition of rabbit erythrocytes hemagglutinination relative to galactose; format: functional

IC50 [1] [mM]	MIC (Cryptosporidium hominis [2]) [mM]	MIC (Cryptosporidium parvum [4]) [mM]	Structure (SMILES)	Activity (Cryptosporidium parvum [3])	Activity (Cryptosporidium hominis [5])
> 500	–	–	CO[C@H]1O[C@H](CO)[C@@H](O)[C@H](O)[C@H]1O	–	–
50	–	–	O=[N+]([O-])c1ccc(O[C@@H]2O[C@H](CO)[C@H](O)[C@H](O)[C@H]2O)cc1	–	–
3.5	–	–	CC(=O)N[C@H]1C(O)O[C@H](CO)[C@H](O)[C@@H]1O[C@@H]1O[C@H](CO)[C@H](O)[C@H](O)[C@H]1O (stereo partly drawn)	–	–
6.5	3.1 (≈ 686 µg/mL)	3.1 (≈ 686 µg/mL)	CC(=O)N[C@H]1C(O)O[C@H](CO)[C@H](O)[C@@H]1O (stereo partly drawn)	2	2
1.5	–	–	CC(=O)N[C@@H]1[C@@H](O[C@@H]2O[C@H](CO)[C@H](O)[C@H](O)[C@H]2O)[C@H](O)[C@@H](CO)O[C@H]1O	–	–
2.5	–	–	OC[C@H]1O[C@H](O[C@@H]2[C@H](O)[C@@H](O)C(O)O[C@@H]2CO)[C@H](O)[C@@H](O)[C@H]1O (stereo partly drawn)	–	–
5	–	–	OC[C@H]1O[C@H](O[C@H]2[C@H](O)[C@@H](O)[C@H](O)O[C@@H]2CO)[C@H](O)[C@@H](O)[C@H]1O	–	–
25	–	–	O=[N+]([O-])c1ccc(O[C@H]2O[C@H](CO)[C@H](O)[C@H](O)[C@H]2O)cc1	–	–
0.5	–	–	CC(=O)N[C@@H]1[C@@H](O)[C@H](O)[C@@H](CO[C@@H]2O[C@H](CO)[C@H](O)[C@H](O)[C@H]2O)O[C@H]1O	–	–
> 500	> 100	50 (≈ 9010 µg/mL)	OC[C@H]1OC(O)[C@@H](O)[C@@H](O)[C@@H]1O (stereo partly drawn) [D-MANNOSE]	0.124	0.062
> 500	> 100	100 (≈ 18000 µg/mL)	OC[C@H]1O[C@@H](O)[C@H](O)[C@@H](O)[C@@H]1O [DEXTROSE]	0.062	0.062
12.5	6.2 (≈ 1120 µg/mL)	6.2 (≈ 1120 µg/mL)	O=C[C@H](O)[C@@H](O)[C@@H](O)[C@H](O)CO [GALACTOSE]	1	1
> 500	> 100	> 100	C[C@H](O)[C@@H](O)[C@@H](O)[C@H](O)C=O [L-FUCOSE]	<0.062	<0.062
> 500	> 100	50 (≈ 11100 µg/mL)	CC(=O)N[C@@H]1[C@@H](O)[C@H](O)[C@@H](CO)O[C@H]1O [N-ACETYLGLUCOSAMINE]	0.124	0.062
